Four molecules from patent US8158621B2, “Methods of treating or preventing autoimmune diseases with 2,4-pyrimidinediamine compounds” (Rigel Pharmaceuticals, Inc., priority 2002, dated 2012) can be followed below.

Data set [1] concerns the target T1, Syk kinase (Homo sapiens, UniProt P43405).
T1 construct: purchased Upstate, Lake Placid NY
Nature of the data set: Syk kinase biochemical fluorescence polarization assay. Particulars: isolated Syk kinase, fluorescence polarization, 4 uM ATP. For orientation: Fluorescence polarisation rises when a labelled molecule tumbles more slowly, as on binding a larger partner.

The test system of data set [2] is Human Jurkat T-cells (clone N). As to the kind of experiment: Jurkat T-cell activation (anti-TCR, CD69 upregulation). Format: cell-based. Summed up: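 Readout is CD69 upregulation by flow cytometry (anti-CD69-APC, 20 min at 4 °C) after 20 h anti-TCR (C305, 500 ng/ml) stimulation at 37 °C.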
A short description of data set [3]: Mouse Reverse Passive Arthus reaction (RPA reaction). Format: in vivo, C57BL/6 mice. The conditions noted are these: oral, 100 mg/kg. The protocol: In this model system, test compounds are administered at several timepoints prior to administration of Abs and Ags. A solution of rabbit anti-OVA IgG (50 μg in 25 μl/mouse) is injected intradermally, and immediately following is an intravenous injection of chicken egg albumin (20 mg/kg of body weight) in a solution containing 1% Evans blue dye. The degree of edema and hemorrhage is measured in the dorsal skin of C57BL/6 mice using the Evan's Blue dye as an indicator of local tissue damage. Purified polyclonal rabbit IgG is used as a control.
Pretreatment time, in which the test compounds are administered prior to Ab/Ag challenge, depends on the pharmacokinetic (PK) properties of each individual compound. Four hours after induction of Arthus reaction, mice are euthanized, and tissues are harvested for assessment of edema.

The test system of data set [4] is FcγRI-mediated degranulation. As to the kind of experiment: FcγRI-mediated degranulation (anti-human IgG Fab activation). Format: cell-based. Particulars: cells not primed with IgE, activated with rabbit anti-human IgG Fab fragment.
The subject of data set [5] is basophil cells (human peripheral blood). Nature of the data set: Basophil ionomycin activation: histamine release assay. The conditions noted are these: basophils, ionomycin activation, histamine release; read-out: Basophils Ionomycin Histamine IC50. The data set is classed as cell-based. The protocol:
(§1) The basophil activation assay was carried out using whole human peripheral blood from donors allergic to dust mites with the majority of the red blood cells removed by dextran sedimentation. Human peripheral blood was mixed 1:1 with 3% dextran T500 and RBCs were allowed to settle for 20-25min. The upper fraction was diluted with 3 volumes of D-PBS and cells were spun down for 10 min at 1500 rpm, RT. Supernatant was aspirated and cells were washed in an equal volume MT-buffer. Finally, cells were resuspended in MT-buffer containing 0.5% DMSO in the original blood volume. 80 uL cells were mixed with 20 uL compound in the presence of 0.5% DMSO, in triplicate, in a V-bottom 96-well tissue culture plate. A dose range of 8 compound concentrations was tested resulting in a 10-point dose response curve including maximum (stimulated) and minimum (unstimulated) response. […] The cells were stimulated for 30 minutes at 37° C., 5% CO2. The plate was spun for 10 min at 1500 rpm at room temperature and 80 uL the supernatant was harvested for histamine content analysis using the histamine ELISA kit supplied by Immunotech. The ELISA was performed according to supplier's instructions.
Assays for ionomycin-induced basophil cell degranulation were carried out as described for the Basophil IgE or Dustmite Activation Assay (Section 7.5.5, supra), with the exception that following incubation with compound, cells were stimulated with 20 μl of 2 μM ionomycin.

The test system is the same in data set [6]. Nature of the data set: Basophil anti-IgE activation: histamine release assay. Format: cell-based. The conditions noted are these: basophils, anti-IgE activation, histamine release; read-out: Basophils anti-IgE Histamine IC50. The protocol: as §1
In data set [7] the test system is Primary human B-cells. As to the kind of experiment: Primary B-cell activation (α-IgM, CD69 upregulation). The data set is classed as cell-based. Particulars: read-out: 1° B-Cell CD69 IC50. The protocol:
Primary human B-cells were isolated from buffy coat, the white cell layer that forms between the red cells and the […] when anti-coagulated blood is centrifuged, or from fresh blood using CD19-Dynal® beads and a FACS. Buffy coat was obtained from the Stanford Medical School Blood Centre, prepared on the same day by the blood bank, stored and transported cold (with ice). The buffy coat (approx 35 mL) was placed in a 500 mL conical sterile centrifuge pot and cooled on ice, then diluted with cold PBS containing 0.2% BSA (Sigma: A7638) and sodium citrate (0.1%, Sigma: S-5570) (P—B—C) to a total volume of 200 mL and mixed gently. Fresh blood was collected from donors in 10 mL vacutainers containing heparin (1 vacutainer collects approximately 8.5 mL blood). The blood was cooled on ice, transferred into 50 mL falcon tubes (20 mL/tube) or a 500 mL conical sterile centrifuge pot, and diluted with an equal volume P—B—C.
25 mL diluted blood or buffy coat was layered onto 15 mL cold ficoll and placed back on ice. The ficoll layered blood was centrifuged (Beckman GS-6R) for 45 minutes at 2000 rpm, 4° C. to separate the Peripheral Blood Mononuclear Cells (PBMC) from the Red Blood Cells (RBC) and granulocytes. The top aqueous layer was then aspirated until 1 inch above the PBMC layer. The PBMCs were transferred from every 2 ficoll tubes into one clean 50 mL falcon tube (=approx 10 mL/tube). The transferred PBMCs were diluted 5× with icecold PBS with 0.2% BSA (P—B) and centrifuged for 20 min at 1400 rpm and 4° C. The supernatant (this may be cloudy) was then aspirated and the PBMCs resuspended into 25 mL P—B and the cells counted (using a 1:5 dilution) and kept on ice.
The cells were then positively selected using anti-CD 19 antibody coupled to magnetic beads (Dynal®) as per manufacturer's instructions. The approximate required amount of CD19-Dynal® beads (CD19-coated dyna beads M-450 (pabB), Dynal®) was calculated by estimating the number of B-cells as 5% of PBMCs counted and adding approximately10 beads per cell from the bead stock (4×10^8 beads/mL). The CD19-Dynal® beads were washed 2× in P—B in a 5 mL tube using the Dynal® magnet, then added into the suspended PBMCs. This mixture was then passed through the Dynal® magnet and washed several times to separate the bead-bound cells.
After separation, the beads and antibody were removed using Dynal® CD19-DETACHaBEAD® for 45 min at 30° C. Yield is typically 2×10^7 B-cells per buffy coat. B-cells were washed and resuspended as 1E6 cells/mL in RPMI1640+10% FBS+Penicillin/[…]+1 ng/mL IFNα8. Cells were rested overnight at 37° C. and 5% CO2.
The following day, cells were washed and resuspended in RPMI+2.5% FBS to 1×10^6 cells/mL. Cells were then aliquoted into a V-bottom 96-well plate (Corning) at 65 uL cells per well. By robot, 65 uL of a 2× compound was added to the cells with final concentration of DMSO at 0.2%, and incubated for 1 hr at 37° C. Cells were then stimulated with 20 uL 7.5× α-IgM from Jackson laboratories (final 5 ug/mL) for 24 hrs. At day 3, the cells were spun down and stained for CD69 and analyzed by FACS gated on the live cells (by light scatter).
Varied concentrations of compound were compared to solvent only to determine the inhibition of B-cell activation IC50 of each compound.

The subject of data set [8] is cultured human mast cells (CHMC). As to the kind of experiment: CHMC low cell density ionomycin activation: tryptase assay. The data set is classed as cell-based. Particulars: Low Density CHMC, ionomycin activation, tryptase release; read-out: CHMC Ionomycin Tryptase IC50.
Data set [9] has the same test system. Nature of the data set: CHMC high cell density IgE activation: histamine. Format: cell-based. The protocol: (§2) After sensitizing, cells are counted, pelleted (1000 rpm, 5-10 minutes), and resuspended at 1-2 ×10^6 cells/ml in MT buffer. Add 100 ul of cell suspension to each well and 100 ul of compound dilutions. The final vehicle concentration is 0.5% DMSO. Incubate at 37° C. (5% CO2) for 1 hour. After 1 hour of compound treatment, stimulate cells with 6× anti-IgE. Mix wells with the cells and allow plates to incubate at 37° C. (5% CO2) for one hour. After 1 hour incubation, pellet cells (10 minutes, 1000 RPM) and collect 200 ul per well of the supernatant, being careful not to disturb pellet. Place the supernatant plate on ice. During the 7-hour step (see next) perform tryptase assay on supernatant that had been diluted 1:500. Resuspend cell pellet in 240 ul of CM media containing 0.5% DMSO and corresponding concentration of compound. Incubate CHMC cells for 7 hours at 37° C. (5% CO2). After incubation, pellet cells (1000 RPM, 10 minutes) and collect 225 ul per well and place in −80° C. until ready to perform ELISAS. ELISAS are performed on appropriately diluted samples (determined empirically for each donor cell population so that the sample measurement falls within the standard curve) following the supplier's instructions.

For data set [10] the test system is unchanged. As to the kind of experiment: CHMC high cell density IgE activation: tryptase. The data set is classed as cell-based. The protocol: as §2
For data set [11] the test system is unchanged. Nature of the data set: CHMC low cell density IgE activation: tryptase assay. The data set is classed as cell-based. Particulars: Low Density CHMC, anti-IgE activation, tryptase release; read-out: CHMC anti-IgE Tryptase IC50. Summed up: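 Supernatant tryptase activity, assayed with substrate for 30 min at room temperature, served as the degranulation measure. Mast cells (1000-1500 per well depending on donor) sat 1 hr at 37° C in MT before a 30 min anti-IgE challenge at 37° C.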

For data set [12] the test system is unchanged. As to the kind of experiment: CHMC low cell density IgE activation: LTC4 assay. Format: cell-based. Particulars: anti-IgE activation, LTC4 release. The protocol: Pellet CHMC cells (980 rpm, 10 min) and resuspend in pre-warmed MT. Add 65 ul of cells to each 96-well plate. Depending on the degranulation activity for each particular CHMC donor, load 1000-1500 cells/well. Mix four times followed by a 1 hr incubation at 37° C. […] Stimulate cells by adding 25 ul of 6× anti-IgE solution to the appropriate plates. Add 25 ul MT to un-stimulated control wells. Mix twice following addition of the anti-IgE. Incubate at 37° C. for 30 minutes. […] Spin plates at 1000 rpm for 10 min to pellet cells. Transfer 25 ul of supernatant to a 96-well black bottom plate and add 100 ul of freshly diluted tryptase substrate solution to each well. Incubate plates at room temperature for 30 min.
Leukotriene C4 (LTC4) is also quantified using an ELISA kit on appropriately diluted supernatant samples (determined empirically for each donor cell population so that the sample measurement falls within the standard curve) following the supplier's instructions.

Data set [13] shares this test system. As to the kind of experiment: CHMC high cell density IgE activation: hexos. The data set is classed as cell-based. The method, then:
as §2
Add 50 uL of BMMC cell supernatant (see above) to the hexoseaminidase substrate, place at 37° C. for 30 minutes and read the plate at 5, 10, 15, and 30 minutes on a spectrophotometer.

The subject of data set [14] is Jurkat cells. As to the kind of experiment: Jurkat toxicity, Cell Titer Glo assay. Format: cell-based, human. The protocol: Seed 50 μl cells (1×10^6/ml) into each well containing 50 μl compound. […] Shake plates for 1 minute to mix cells and compound. Incubate plates at 37° C. […] Next day, harvest 50 μl cells from each well, add to 50 μl Cell Titer Glo reagent ([…]). Shake plates for 1 minute. Read on luminometer.
In general terms: ATP-based viability assays read luminescence as a measure of living cells.

Data set [15] concerns cultured human mast cells (CHMC). As to the kind of experiment: CHMC high cell density IgE activation: TNFalpha. Format: cell-based. The conditions noted are these: read-out: CHMC high density TNF-alpha. The protocol: as §2
Data set [16] shares this test system. As to the kind of experiment: CHMC high cell density IgE activation: LTC4. The data set is classed as cell-based. The method, then:
as §2

Each structure is given as a SMILES string. A value given as a limit tells only on which side of the number the result lay.

On to `Fc1cnc(Nc2ccc3cn[nH]c3c2)nc1Nc1ccc(Cl)c(Cl)c1` [Compound R935372], for which the IC50 in data set [1] was 205 nM; in data set [2] it was 30700 nM. The entries for the “% inhibition to vehicle control Edema Size ± SEM” value in data set [3] (pretreatment time 0.5 hrs), in data set [3] (pretreatment time 1 hrs) and in data set [3] (pretreatment time 2 hrs) were −0.6 ± 6.2%, 23.5 ± 7.4% and −4.4 ± 17.7%, respectively. Further, the “Plasma Concentration ± SEM (ng/ml) Exposure = Pretreatment Time + 4 hours” value in data set [3] (pretreatment time 0.5 hrs + 4 hours) amounted to 0.6 ± 1 ng/mL; in [3] (pretreatment time 1 hrs + 4 hours), 4.2 ± 4 ng/mL; in data set [3] (pretreatment time 2 hrs + 4 hours), 52.65 ± 39 ng/mL. Moreover, in [4], the “inhibition of FcγRI-mediated degranulation” value is recorded as “inhibit FcγRI-mediated degranulation”.

Take `Fc1cnc(Nc2ccc3c(c2)OC(F)(F)C(F)(F)O3)nc1Nc1ccc2c(c1)OC(F)(F)C(F)(F)O2` [Compound R926037]: the IC50 in data set [2], in data set [5] and in data set [6] was over 10000 nM in each case.

As to `O=C1Nc2cc(Nc3ncc(F)c(Nc4ccc5c(c4)NC(=O)C(F)(F)O5)n3)ccc2OC1(F)F` [Compound R940352], the IC50 in data set [1] is 130 nM; in [2] it was 3530 nM; in data set [7], 876 nM. In addition, the “inhibition of FcγRI-mediated degranulation” value in [4] was “inhibit FcγRI-mediated degranulation”.

Consider `CNC(=O)c1cc2cc(Nc3ncc(F)c(Nc4cccc(O)c4)n3)ccc2o1` [Compound R926493], for which the IC50 in [8] worked out at 9180 nM; in data set [2], 3520 nM; in data set [9] it was 1320 nM; in [10], 1090 nM; in [11], 250 nM; in data set [12], 78 nM. Further, the IC50 was 889 nM in data set [13], over 4330 nM in [14], over 2000 nM in data set [15] and 474 nM in data set [16].
